Measured values from US20250129135A1, “Multi-Agonist and Use Thereof” (priority 2021, published 2025).
Starred links: 1 amine or outer side, 2 acyl side, 3 side chain; linkers in the order of their positions; H or OH if unused. Non-standard residues stand in square brackets, D forms with d. Residues, ends and D or L forms follow the SMILES beside them. Groups on a side chain read outwards from the residue. *: point of attachment. C20 diacid = O=C(O)CCCCCCCCCCCCCCCCCCC(=O)*; αMePhe(2-F) = C[C@](N)(Cc1ccccc1F)C(=O)O; γGlu = O=C(O)[C@H](CCC(=O)[*:2])N[*:1]; αMeF = C[C@](N)(Cc1ccccc1)C(=O)O; αMeL = CC(C)C[C@](C)(N)C(=O)O; AEEA = NCCOCCOCC(=O)O; Ac3c = NC1(C(=O)O)CC1; Aib = CC(C)(N)C(=O)O

How the values were obtained:
[1] = target: T1, Human GIP R (Homo sapiens, UniProt P48546); test: cAMP (HTRF) activity in CHO cells stably overexpressing GIP receptor; type: cell-based; conditions: for Human GIP R Rel. A (Relative Activity): EC50 of human GIP / EC50 of compound; for EC50: stable transfected cell cAMP activity, at least 3 independent tests
T1 construct: expressed in transfected cells; host or cells: CHO
T1 sequence (P48546 22-466): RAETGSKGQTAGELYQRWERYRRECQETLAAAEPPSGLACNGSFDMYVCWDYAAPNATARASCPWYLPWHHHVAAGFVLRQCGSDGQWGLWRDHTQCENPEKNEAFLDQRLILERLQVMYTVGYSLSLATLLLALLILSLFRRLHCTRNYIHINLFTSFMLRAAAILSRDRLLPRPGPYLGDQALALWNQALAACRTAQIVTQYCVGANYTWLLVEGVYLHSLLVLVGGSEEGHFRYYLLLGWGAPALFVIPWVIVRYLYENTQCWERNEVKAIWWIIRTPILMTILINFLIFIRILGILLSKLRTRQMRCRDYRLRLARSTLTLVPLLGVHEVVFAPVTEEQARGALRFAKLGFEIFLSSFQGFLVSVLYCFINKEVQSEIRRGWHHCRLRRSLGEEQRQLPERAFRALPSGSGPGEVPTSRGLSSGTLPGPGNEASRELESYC
Procedure: (§1) By measuring the cAMP signal response levels of the aforementioned cells, the agonistic activity of individual compound towards the corresponding receptor was determined. The intracellular cAMP content was measured using reagent kit available from Cisbio Corp. based on HTRF (homogeneous time-resolved fluorescence) technology.
(§2) The cell fluid was transferred to 10 ml of HBSS for resuspension, and centrifuged at 1000 rpm for 5 minutes at room temperature.
(§3) 10 μL cell suspension was added to each well in the 384 well plate. […] Using the ECHO liquid transfer system, 100 nL of the prepared compound solution was added to the corresponding cell suspensions in the 384 well plate, rotated and shaken at 1000 rpm for 1 minute to mix evenly, and then incubated at room temperature for 60 minutes. 10 μL of detection reagent was added to each well after drug incubation was completed, and incubation was performed in the kit at room temperature for 60 minutes. […] GraphPad Prism 5 plotting software was used to create compound concentration response curves and EC50 (nM) values was calculated.

[2] = target: T2, Human GCG R (Homo sapiens, UniProt P47871); test: cAMP (HTRF) activity in HEK-293 cells stably overexpressing human GCG receptor; type: cell-based; conditions: for Human GCG R Rel. A (Relative Activity): EC50 of human GCG / EC50 of compound
T2 construct: expressed in transfected cells; host or cells: HEK-293
Procedure: as §1, §2, §3

[3] = system: RIN-m5F cells; type: cell-based, rat; conditions: for Rel. A (Relative Activity) on RIN-m5F: relative to GLP-1(7-37)
Procedure: This experiment measured the cAMP level produced by the compound on RIN-mF cells.
Frozen […] cells were placed in a 37° C. constant temperature water bath for rapid thawing and recovery. The cell solution was transferred to 10 ml of HBSS for resuspension, and centrifuged at 1000 rpm for 5 minutes at room temperature.
10 μL cell suspension was added to each well in the 384 well plate. […] Using the ECHO liquid transfer system, 100 nL of the prepared compound solution was added to the corresponding cell suspensions in the 384 well plate, rotated and shaken at 1000 rpm for 1 minute to mix evenly, and then incubated at room temperature for 60 minutes. 10 μL of detection reagent was added to each wells after drug incubation was completed, and incubation was performed for 60 minutes.

[4] = system: 3T3-L1 adipocytes; conditions: for Rel. A (Relative Activity) on 3T3-L1 adipocyte: relative to GIP
Procedure: Mouse 3T3-L1 precursor adipocytes can be induced to differentiate into mature adipocytes. […] After the cells became full and contacted with each other, DMEM differentiation medium containing 20% FBS, 0.5 mM IBMX, 0.4 ug/mL dexamethasone, and 5 ug/mL insulin was used to induce differentiation of 3T3-L1 adipocyte. After 5 days of induction and cultivation, DMEM medium containing […], 4 ug/ml insulin, and 10 uM rosiglitazone was used to continue induction and cultivation for 3 days. Then, DMEM medium containing 10% FBS was used to continue cultivation for 2-3 days to induce mature 3T3-L1 adipocytes.
The cAMP level produced by the compound on 3T3-L1 adipocytes was determined in this experiment. The tested compound solution was diluted step by step according to a concentration gradient of 3 times, to obtain a total of 10 series of concentration solutions. The solutions were added to induced mature 3T3-L1 adipocytes and incubated at room temperature for 60 minutes. 10 μL detection reagent in the kit was added to each well after drug incubation, and incubated at room temperature for another 60 minutes. […] GraphPad Prism 5 plotting software was used to create compound concentration-effect curves and calculation was performed.

[5] = system: human primary liver cells; type: cell-based; conditions: for Rel. A (Relative Activity) on human primary liver cells: relative to GCG
Procedure: The cAMP levels produced by compounds on human primary liver cells were determined in this experiment. Human primary liver cells were purchased from Lonza (cell product number HUCPG).
Frozen human primary liver cells were placed in a 37° C. constant temperature water bath for rapid thawing and recovery. The cell solution was transferred to 10 ml of HBSS for resuspension, and centrifuged at 1000 rpm for 5 minutes at room temperature.
10 μL cell suspension was added to each well in the 384 well plate. […] Using the ECHO liquid transfer system, 100 nL of the prepared compound solution was added to the corresponding cell suspensions in the 384 well plate, rotated and shaken at 1000 rpm for 1 minute to mix evenly, and then incubated at room temperature for 60 minutes. 10 μL of detection reagent was added to each well after drug incubation was completed, and incubation was performed for 60 minutes.

[6] = target: Human GLP-1R (Homo sapiens, UniProt P43220); test: cAMP (HTRF) activity in HEK-293 cells stably overexpressing human GLP-1 receptor; type: cell-based; parameters: expressed in transfected cells; host or cells: HEK-293; conditions: for Human GLP-1R Rel. A (Relative Activity): EC50 of human GLP-1 (7-37) / EC50 of compound; for EC50: stable transfected cell cAMP activity, at least 3 independent tests
Procedure: as §1, §2, §3

T2 sequence (P47871 26-477): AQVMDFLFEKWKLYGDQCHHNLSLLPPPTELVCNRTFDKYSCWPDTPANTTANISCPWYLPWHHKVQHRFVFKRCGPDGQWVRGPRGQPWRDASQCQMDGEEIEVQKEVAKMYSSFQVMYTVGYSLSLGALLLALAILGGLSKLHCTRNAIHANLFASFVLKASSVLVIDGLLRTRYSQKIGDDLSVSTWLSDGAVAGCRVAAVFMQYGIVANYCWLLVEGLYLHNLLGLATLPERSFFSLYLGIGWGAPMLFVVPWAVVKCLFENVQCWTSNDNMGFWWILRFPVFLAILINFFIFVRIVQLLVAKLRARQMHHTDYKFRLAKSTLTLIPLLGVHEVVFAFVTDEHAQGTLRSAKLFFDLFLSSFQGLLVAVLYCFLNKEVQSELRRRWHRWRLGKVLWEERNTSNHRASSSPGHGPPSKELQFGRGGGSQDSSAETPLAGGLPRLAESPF
Sequence of Human GLP-1R (P43220 24-463): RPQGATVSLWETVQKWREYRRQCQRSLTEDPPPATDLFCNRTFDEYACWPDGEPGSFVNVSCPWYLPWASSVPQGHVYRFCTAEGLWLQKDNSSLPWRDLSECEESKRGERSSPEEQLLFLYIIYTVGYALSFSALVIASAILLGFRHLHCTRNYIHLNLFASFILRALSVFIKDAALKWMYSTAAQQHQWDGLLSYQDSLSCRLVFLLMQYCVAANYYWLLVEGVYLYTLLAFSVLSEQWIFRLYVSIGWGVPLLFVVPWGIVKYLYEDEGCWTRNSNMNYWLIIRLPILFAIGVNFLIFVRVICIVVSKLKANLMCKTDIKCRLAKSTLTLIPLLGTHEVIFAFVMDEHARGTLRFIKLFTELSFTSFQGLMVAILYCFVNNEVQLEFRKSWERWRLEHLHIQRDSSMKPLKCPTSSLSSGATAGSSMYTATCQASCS

SMILES: CC[C@H](C)[C@H](NC(=O)[C@H](Cc1ccccc1)NC(=O)[C@H](C)NC(=O)C(C)(C)NC(=O)[C@H](CCC(N)=O)NC(=O)[C@H](C)NC(=O)[C@H](CCCCNC(=O)COCCOCCNC(=O)COCCOCCNC(=O)CC[C@H](NC(=O)CCCCCCCCCCCCCCCCCCC(=O)O)C(=O)O)NC(=O)[C@H](CCCCN)NC(=O)[C@H](CC(=O)O)NC(=O)[C@H](CC(C)C)NC(=O)[C@](C)(CC(C)C)NC(=O)[C@@H](NC(=O)[C@H](CO)NC(=O)[C@H](Cc1ccc(O)cc1)NC(=O)[C@H](CC(=O)O)NC(=O)[C@H](CO)NC(=O)[C@@H](NC(=O)[C@](C)(Cc1ccccc1)NC(=O)[C@@H](NC(=O)CNC(=O)[C@H](CCC(N)=O)NC(=O)C(C)(C)NC(=O)[C@@H](N)Cc1ccc(O)cc1)[C@@H](C)O)[C@@H](C)O)[C@@H](C)CC)C(=O)N[C@@H](CCC(=O)O)C(=O)N[C@@H](Cc1ccc(O)cc1)C(=O)N[C@@H](CC(C)C)C(=O)N[C@@H](CC(C)C)C(=O)N[C@@H](CCC(=O)O)C(=O)N[C@H](C(=O)N[C@@H](Cc1c[nH]cn1)C(=O)N1CCC[C@H]1C(=O)N[C@@H](CO)C(=O)N[C@@H](CO)C(=O)NCC(=O)N[C@@H](C)C(=O)N1CCC[C@H]1C(=O)N1CCC[C@H]1C(=O)NC1(C(=O)N[C@@H](CO)C(N)=O)CC1)[C@@H](C)O [Compound 2] (H-Y[Aib]QGT[αMeF]TSDYSI[αMeL]LDKK([AEEA-AEEA-γGlu-C20 diacid])AQ[Aib]AFIEYLLETHPSSGAPP[Ac3c]S-NH2; N-terminus assumed)
- Human GIP R Rel. A (Relative Activity) [1]: 724.00%
- EC50 [1]: 25 pM
- Human GCG R Rel. A (Relative Activity) [2]: 24.57%
- EC50 [3]: 624 pM
- Rel. A (Relative Activity) on RIN-m5F [3]: 165.38%
- EC50 [4]: 2490 pM
- Rel. A (Relative Activity) on 3T3-L1 adipocyte [4]: 152.63%
- EC50 [5]: 2370 pM
- Rel. A (Relative Activity) on human primary liver cells [5]: 164.32%
- Human GLP-1R Rel. A (Relative Activity) [6]: 169.23%
- EC50 [6]: 26 pM

SMILES: CC[C@H](C)[C@H](NC(=O)[C@H](Cc1ccccc1)NC(=O)[C@H](C)NC(=O)C(C)(C)NC(=O)[C@H](CCC(N)=O)NC(=O)[C@H](C)NC(=O)[C@H](CCCCNC(=O)COCCOCCNC(=O)COCCOCCNC(=O)CC[C@H](NC(=O)CCCCCCCCCCCCCCCCCCC(=O)O)C(=O)O)NC(=O)[C@H](CCCCN)NC(=O)[C@H](CC(=O)O)NC(=O)[C@H](CC(C)C)NC(=O)[C@](C)(CC(C)C)NC(=O)[C@@H](NC(=O)[C@H](CO)NC(=O)[C@H](Cc1ccc(O)cc1)NC(=O)[C@H](CC(=O)O)NC(=O)[C@H](CO)NC(=O)[C@@H](NC(=O)[C@](C)(Cc1ccccc1F)NC(=O)[C@@H](NC(=O)CNC(=O)[C@H](Cc1c[nH]cn1)NC(=O)C(C)(C)NC(=O)[C@@H](N)Cc1ccc(O)cc1)[C@@H](C)O)[C@@H](C)O)[C@@H](C)CC)C(=O)N[C@@H](CCC(=O)O)C(=O)N[C@@H](Cc1ccc(O)cc1)C(=O)N[C@@H](CC(C)C)C(=O)N[C@@H](CC(C)C)C(=O)N[C@@H](CCC(=O)O)C(=O)NC(C)(C)C(=O)N[C@@H](Cc1c[nH]cn1)C(=O)N1CCC[C@H]1C(=O)N[C@@H](CO)C(=O)N[C@@H](CO)C(=O)NCC(=O)N[C@@H](CCC(N)=O)C(=O)N1CCC[C@H]1C(=O)N1CCC[C@H]1C(=O)N1CCC[C@H]1C(=O)N[C@@H](CO)C(N)=O [Compound 6] (H-Y[Aib]HGT[αMePhe(2-F)]TSDYSI[αMeL]LDKK([AEEA-AEEA-γGlu-C20 diacid])AQ[Aib]AFIEYLLE[Aib]HPSSGQPPPS-NH2; N-terminus assumed)
- Human GIP R Rel. A (Relative Activity) [1]: 1292.86%
- EC50 [1]: 14 pM
- Human GCG R Rel. A (Relative Activity) [2]: 98.28%
- EC50 ([2]; stable transfected cell cAMP activity, at least 3 independent tests): 58 pM
- EC50 [3]: 1590 pM
- Rel. A (Relative Activity) on RIN-m5F [3]: 64.74%
- EC50 [4]: 1010 pM
- Rel. A (Relative Activity) on 3T3-L1 adipocyte [4]: 374.58%
- EC50 [5]: 299 pM
- Rel. A (Relative Activity) on human primary liver cells [5]: 1301.34%
- Human GLP-1R Rel. A (Relative Activity) [6]: 220.00%
- EC50 [6]: 20 pM

SMILES: CC[C@H](C)[C@H](NC(=O)[C@H](Cc1ccccc1)NC(=O)[C@H](C)NC(=O)C(C)(C)NC(=O)[C@H](CCC(N)=O)NC(=O)[C@H](C)NC(=O)[C@H](CCCCNC(=O)COCCOCCNC(=O)COCCOCCNC(=O)CC[C@H](NC(=O)CCCCCCCCCCCCCCCCCCC(=O)O)C(=O)O)NC(=O)[C@H](CCCCN)NC(=O)[C@H](CC(=O)O)NC(=O)[C@H](CC(C)C)NC(=O)[C@](C)(CC(C)C)NC(=O)[C@@H](NC(=O)[C@H](CO)NC(=O)[C@H](Cc1ccc(O)cc1)NC(=O)[C@H](CC(=O)O)NC(=O)[C@H](CO)NC(=O)[C@@H](NC(=O)[C@](C)(Cc1ccccc1F)NC(=O)[C@@H](NC(=O)CNC(=O)[C@H](CCC(N)=O)NC(=O)C(C)(C)NC(=O)[C@@H](N)Cc1ccc(O)cc1)[C@@H](C)O)[C@@H](C)O)[C@@H](C)CC)C(=O)N[C@@H](CCC(=O)O)C(=O)N[C@@H](Cc1ccccc1)C(=O)N[C@@H](CC(C)C)C(=O)N[C@@H](CC(C)C)C(=O)N[C@@H](CCC(=O)O)C(=O)NCC(=O)N[C@@H](CCCNC(=N)N)C(=O)N1CCC[C@H]1C(=O)N[C@@H](CO)C(=O)N[C@@H](CO)C(=O)NC(C)(C)C(=O)N[C@@H](Cc1c[nH]cn1)C(=O)N1CCC[C@H]1C(=O)N1CCC[C@H]1C(=O)N1CCC[C@H]1C(=O)N[C@@H](CO)C(N)=O [Compound 25]
- Human GIP R Rel. A (Relative Activity) [1]: 1392.31%
- EC50 [1]: 13 pM
- Human GCG R Rel. A (Relative Activity) [2]: 167.65%
- EC50 [3]: 202 pM
- Rel. A (Relative Activity) on RIN-m5F [3]: 510.89%
- EC50 [4]: 918 pM
- Rel. A (Relative Activity) on 3T3-L1 adipocyte [4]: 414.16%
- EC50 [5]: 649 pM
- Rel. A (Relative Activity) on human primary liver cells [5]: 599.54%
- Human GLP-1R Rel. A (Relative Activity) [6]: 141.94%
